According to publication PMC4977052, “On the Utility of ToxCast™ and ToxPi as Methods for Identifying New Obesogens” (Environmental Health Perspectives, 2016):
pEC50: −log10 of the molar value. Read-outs that look alike come from different tables or passages of the source.

Legend:
[1] = test system: RXRα; details: cited from earlier work
[2] = test system: PPARγ; details: ToxCast Phase I 2011 release; NA = not active; ref Knudsen et al. 2011; read-out: ATGT PPARγ AC50; cited from earlier work
[3] = molecular target: T1, GAL4-hRXRα (Homo sapiens, UniProt P19793); assay: GAL4-hRXRα activation, transient transfection luciferase reporter in COS7 cells; format: cell-based
T1 construct: expressed in transfected cells; host or cells: COS7
Procedure: pCMX-Gal4, pCMX-Gal4-mPPARγ, and pCMX-Gal4-hRXRα were previously described ([Grün et al. 2006]). Transient transfections were performed in COS7 cells as described ([Chamorro-García et al. 2012]). Briefly, COS7 cells were seeded at 15,000 cells per well in 96-well tissue culture plates in 10% calf bovine serum. The following day, cells were transfected in Opti-MEM at ~ 90% confluency. One microgram of CMX-GAL4 effector plasmid was co-transfected with 5 μg tk-(MH100)4-luciferase reporter and 5 μg of CMX-β-galactosidase transfection control plasmids in Opti-MEM® using Lipofectamine® 2000 reagent (Invitrogen™ Life Technologies, Carlsbad, CA, USA), following the manufacturer’s recommended protocol. All chemicals were solvated in dimethyl sulfoxide (DMSO). After overnight incubation, the medium was replaced with Dulbecco’s Modified Eagle Medium (DMEM; HyClone, Logan, UT, USA), 10% resin charcoal stripped fetal bovine serum (FBS) plus ligands at concentrations indicated in the figure legends for an additional 24 hr. DMSO concentration was maintained at 0.05% across all chemical treatments. Cells were lysed and assayed for luciferase and β-galactosidase activity as previously described ([Forman et al. 1995]). All transfections were performed in triplicate and reproduced in multiple experiments. Data are reported as fold induction or reduction over vehicle ([…]) controls ± SEM (standard error of the mean) using standard propagation of error ([Bevington and Robinson 2003]). […] The EC50, EC10, IC50, and IC10 values from NCGC and ToxCast™ are reported from gain AC50 and AC10 values in the ToxCast™ 2014 release ([Filer et al. 2014]).
Figure 4 ToxPi Chemical Activity on PPARγ and RXRα. The ability of a graded dose series of ToxPi chemicals to activate (A) GAL4-mPPARγ or (B) GAL4-hRXRα was tested in transiently transfected COS7 cells. (A, B) Data points are averages of triplicate transfections (three biological replicates). […] ToxPi chemicals were tested in 3-fold serial dilutions from 100 μM through 0.137 μM, with the final data point being 0.05% DMSO. Data are depicted as fold induction over vehicle (0.05% DMSO) controls ± SEM. (A) Rosiglitazone serves as a positive control activator for GAL4-mPPARγ. (B) LG100268 (2-[1-(3,5,5,8,8-Pentamethyl-5,6,7,8-tetrahydro-2-naphthyl)cyclopropyl]pyridine-5-carboxylic acid) serves as a positive control activator for GAL4-hRXRα. (C) EC50 and EC10 values calculated from A and B are reported and compared to other assays (see Figure S1). ATG, Attagene GAL-PPARγ or GAL-RXRα activation assay; NCGC, GeneBLAzer® GAL-PPARγ or GAL-RXRα activation assays. Triphenyltin was previously published ([Kanayama et al. 2005]).

[4] = test system: RXRα; details: ref Filer et al. 2014, cited from earlier work
[5] = test system: mouse bone marrow-derived mesenchymal stem cells (mBMSCs); format: cell-based; details: 14 days, Figure 7
Procedure: A total of 8 × 10^4 cells/well mouse bone marrow-derived mesenchymal stem cells (mBMSCs) (OriCell™) were seeded in 12-well plates in basic medium: high-glucose DMEM (Hyclone) containing 10% calf bovine serum (Premium Select, Atlanta Biologicals), 100 IU/mL penicillin, 100 μg/mL streptomycin, and 1 mM sodium pyruvate. mBMSCs were induced to differentiate in differentiation media (low glucose αMEM containing 15% fetal bovine serum (Premium Select, Atlanta Biologicals), 100 IU/mL penicillin, 100 μg/mL streptomycin and 2 mM L-glutamine) with adipogenic cocktail (500 μM isometylbutylxanthine, 1 μM dexamethasone, 5 μg/mL insulin) and either 500 nM ROSI, 50 nM TBT or ToxCast™ chemicals (as noted for 3T3-L1 cells) for 14 days, replacing the media every 3 days.
Cells were either fixed in 3.7% formaldehyde in phosphate-buffered saline (PBS) for 30 min at room temperature (RT) for lipid quantitation, or homogenized in TriPure (Roche, Mannheim, Germany) for gene expression analysis. For lipid quantitation, fixed cells were washed twice with PBS and maintained in PBS overnight at 4°C to release residual phenol red. Background of cells were measured prior to staining. Cells were stained with 1 μg/mL Nile red (CAS No. 7385-67-3) (to detect lipid accumulation) and 1 μg/mL Hoechst 33342 (ThermoFisher Scientific) (to detect nuclei as a surrogate for cell number) in PBS for 15 min in the dark at RT and washed twice with PBS. […] Background values of Hoechst and Nile red were subtracted from the RFUs after staining and the ratio RFUNile Red:RFUHoechst was calculated. Data are represented as mean ± SEM. Total RNA was isolated using TriPure (Roche) as recommended by the manufacturer. Reverse transcription and quantitative real-time RT-PCR (QPCR) were performed using Transcriptor RT and SYBR® Green Master Mix (Roche). cDNA was quantitated in a LightCycler® 480 System (Roche Diagnostics, Basel, Switzerland) using primer sets listed in Table S4. Each primer set amplified a single band as determined by gel electrophoresis and melting curve analysis. QPCR data were analyzed using the 2^ΔΔCt method ([Livak and Schmittgen 2001]) relative to ribosomal protein 36b4, normalizing to 0.1% DMSO vehicle. Error bars represent the SEM from four to six biological replicates calculated using standard propagation of error ([Bevington and Robinson 2003]).

[6] = test system: 3T3-L1 preadipocytes; assay: 3T3-L1 adipogenesis assay (lipid accumulation, adipogenic gene expression); format: cell-based; details: 0.02-20 μM, 5 days after MDI induction
In short: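 After 2-day MDI induction with biotin and pantothenate, 3T3-L1 cells were treated 5 days with chemicals at 0.02–20 μM (0.1% DMSO; 10 μM if toxic). Lipid read as Nile red/Hoechst fluorescence ratio; adipogenic genes by QPCR, 2^ΔΔCt versus 36b4, normalized to DMSO.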

[7] = test system: C/EBP; set-up: method as in Knudsen et al. 2011; details: ToxCast Phase I 2011 release; NA = not active; ref Knudsen et al. 2011; read-out: ATGC CEBP AC50; cited from earlier work
[8] = test system: PPRE; set-up: method as in Knudsen et al. 2011; details: ToxCast Phase I 2011 release; NA = not active; ref Knudsen et al. 2011; read-out: ATGC PPRE AC50; cited from earlier work

T1 sequence (P19793 with tags, fused parts or gaps limits assumed): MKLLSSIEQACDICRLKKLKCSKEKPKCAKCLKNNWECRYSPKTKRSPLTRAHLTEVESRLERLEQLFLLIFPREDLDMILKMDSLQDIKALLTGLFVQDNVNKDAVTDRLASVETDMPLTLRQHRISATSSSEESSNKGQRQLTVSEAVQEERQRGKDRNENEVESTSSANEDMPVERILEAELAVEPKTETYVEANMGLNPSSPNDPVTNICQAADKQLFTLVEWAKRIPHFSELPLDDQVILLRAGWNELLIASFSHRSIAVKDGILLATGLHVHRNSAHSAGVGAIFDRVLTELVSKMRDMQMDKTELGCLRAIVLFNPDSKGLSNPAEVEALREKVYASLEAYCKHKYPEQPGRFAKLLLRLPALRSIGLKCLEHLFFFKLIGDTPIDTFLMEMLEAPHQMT

N#Cc1c[nH]cc1-c1cccc2c1OC(F)(F)O2 [Fludioxonil]
RXRα agonist: EC10, NCGC ([1]; AC10, ToxCast 2014 release, ref Filer et al. 2014): 1.20 µM | AC50 ([1]; ToxCast Phase I 2011 release, NA = not active, ref Knudsen et al. 2011, read-out: NCGC RXRα AC50): 2.7 µM | pEC50 ([1]; gain AC50, ToxCast 2014 release, ref Filer et al. 2014, read-out: RXRα agonist: EC50, NCGC): 5.65 | AC50 [2]: 28 µM | Activation of RXRα ([3]; COS7, 100 μM through 0.137 μM): activated RXRα | pEC50 ([3]; COS7, ligands 24 hr, read-out: RXRα agonist: EC50, Fig 4B): 4.84 | RXRα agonist: EC10, Fig 4B ([3]; COS7, computed from EC50): 5.42 µM | AC50 ([3]; Cos-7 transient transfection): 14.3 µM | Activation COS7 (result in words): RXRα activator ([3]; Cos-7 transient transfection): RXRα activator | RXRα agonist: EC10, ATG ([4]; AC10, ToxCast 2014 release): 17.93 µM | pEC50 ([4]; gain AC50, ToxCast 2014 release, read-out: RXRα agonist: EC50, ATG): 4.63 | Adipogenic differentiation of mBMSCs (result in words) [5]: could differentiate these uncommitted stem cells into adipocytes | Adipogenesis 3T3-L1 (result in words) [6]: Positive | AC50 [7]: 21 µM | AC50 [8]: 24 µM
